pEC50: −log10 of the molar value.
How the values were obtained:
SARS-CoV-2 [1] = experiment: (§1) Antiviral activity against SARS-CoV-2 20SF107 infected in HPAEpiC cells assessed as inhibition of viral replication pretreated with compound and subsequent introduction of viral infection for 1 hr followed by inoculum removal and compound washout and further treatment with compound for 48 hrs by RT-qPCR analysis; assay type: functional, organism-based; details: for pEC50: Severe acute respiratory syndrome coronavirus 2, 20SF107, HPAEpiC
SARS-CoV-2 [2] = experiment: as §1, with “Omicron BA.5” for “20SF107”; assay type: functional, organism-based; details: Severe acute respiratory syndrome coronavirus 2, Omicron BA.5, HPAEpiC

SMILES	pEC50 (SARS-CoV-2 [1])	inhibition (SARS-CoV-2 [1]; Severe acute respiratory syndrome coronavirus 2, time 49.0 hrs)	pEC50 (SARS-CoV-2 [2])
CCC(CC)COC(=O)[C@H](C)N[P@](=O)(OC[C@H]1O[C@@](C#N)(c2ccc3c(N)ncnn23)[C@H](O)[C@@H]1O)Oc1ccccc1 [REMDESIVIR]	6.04	–	–
CNc1nc(N)nc2c1ncn2[C@@H]1O[C@H](CO[P@@](=O)(N[C@@H](C)C(=O)OC(C)C)Oc2ccccc2)[C@@H](O)[C@]1(F)CF.O=S(=O)(O)O	6.25	Dose-dependent-effect	6.02
